Key:
HCT-116 = assay: Anti-cancer screen (MTT), HCT-116; format: cell-based; conditions: Homo sapiens, HCT-116, 48 hours
Protocol: (§1) Experimental drugs are screened for anti-cancer activity in three cell lines for their GI50, TG1 and LC50 values (using 5 concentrations for each compound). The cell lines are maintained in DMEM containing 10% fetal bovine serum. 96 well microtiter plates are inoculated with cells in […] for 24 hours at 37° C., 5% CO2, 95% air and 100% relative humidity. 5000 HCT116 cells/well, 5000 NCIH460 cells/well, 10000 U251 cells/well and 5000 MDAMB231 cells/well are plated. A separate plate with these cell lines is also inoculated to determine cell viability before the addition of the compounds (T0).
(§2) Addition of Experimental Drugs
(§3) Following 24-hour incubation, experimental drugs are added to the 96 well plates. Each plate contains one of the above cell lines and the following in triplicate: 5 different concentrations (0.01, 0.1, 1, 10 and 100 μM) of 4 different compounds, appropriate dilutions of a cytotoxic standard and control (untreated) wells. Compounds are dissolved in dimethylsulfoxide (DMSO) to make 20 mM stock solutions, on the day of drug addition and frozen at −20° C. Serial dilutions of these 20 mM stock solutions are made in complete growth medium such that 100 μL of these drug solutions in medium, of final concentrations equaling 0.01, 0.1, 1, 10 and 100 μM can be added to the cells in triplicate. Standard drugs whose anti-cancer activity has been well documented and which are regularly used are doxorubicin and SAHA.
(§4) Cells are incubated with compounds for 48 hours followed by the addition of 10 μL 3-(4,5-Dimethyl-2-thiazolyl)-2,5-diphenyl-2H-tetrazolium (MTT) solution per well and a subsequent incubation at 37° C., 5% CO2, 95% air and 100% relative humidity, protected from light. After 4 hours, well contents are aspirated carefully followed by addition of 150 μL DMSO per well. Plates are agitated to ensure solution of the formazan crystals in DMSO and absorbance read at 570 nm.
(§5) Calculation of GI50, TGI and LC50
(§6) Percent growth is calculated for each compound's concentration relative to the control and zero measurement wells (T0; viability right before compound addition).
(§7) If a test well's O.D. value is greater than the T0 measurement for that cell line % Growth=(test−zero)/(control−zero)×100
(§8) If a test well's O.D. value is lower than the T0 measurement for that cell line, then % Growth=(test−zero)/zero×100 Plotting % growth versus experimental drug concentration, GI50 is the concentration required to decrease % growth by 50%; TGI is the concentration required to decrease % growth by 100% and LC50 is the concentration required to decrease % growth by 150%.

NCI-H460 = assay: Anti-cancer screen (MTT), NCI-H460; format: cell-based; conditions: Homo sapiens, NCI-H460, 48 hours
Protocol: as §1, §2, §3, §4, §5, §6, §7, §8

COX-2 = target: T1, COX-2 (Homo sapiens, UniProt P35354); assay: Human whole blood assay (PGE-2 inhibition, COX-2); format: cell-based; conditions: LPS stimulated human whole blood, NA = No activity, read-out: % PGE-2 Inhibition in hWBA
T1 construct: Fresh blood was collected in tubes containing sodium heparin by vein puncture from healthy male volunteers; endogenous in cells; host or cells: human whole blood from healthy male volunteers, stimulated with LPS
T1 sequence (P35354 18-604): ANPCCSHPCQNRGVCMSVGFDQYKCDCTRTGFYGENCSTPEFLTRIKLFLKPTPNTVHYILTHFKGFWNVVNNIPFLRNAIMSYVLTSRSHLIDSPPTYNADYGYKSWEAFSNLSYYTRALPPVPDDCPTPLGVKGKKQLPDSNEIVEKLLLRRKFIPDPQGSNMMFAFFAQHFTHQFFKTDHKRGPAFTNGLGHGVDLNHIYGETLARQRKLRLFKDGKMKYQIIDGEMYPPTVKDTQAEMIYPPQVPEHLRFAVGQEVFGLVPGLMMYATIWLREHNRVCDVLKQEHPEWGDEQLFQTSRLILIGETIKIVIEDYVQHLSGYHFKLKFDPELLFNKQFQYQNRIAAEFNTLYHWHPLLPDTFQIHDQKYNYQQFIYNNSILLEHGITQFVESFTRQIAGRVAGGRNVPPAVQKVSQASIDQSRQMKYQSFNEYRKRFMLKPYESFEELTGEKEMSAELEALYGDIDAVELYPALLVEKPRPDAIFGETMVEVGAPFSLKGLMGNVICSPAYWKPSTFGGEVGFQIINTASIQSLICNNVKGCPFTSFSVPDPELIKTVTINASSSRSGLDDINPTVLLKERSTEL
Protocol: In Vitro Evaluation of Cyclooxygenase-2 (Cox-2) Inhibition Activity
The COX-2 inhibition activities of the compounds illustrated in the examples were determined by the following method.
Human whole blood provides a protein and cell rich milieu appropriate for the study of the biochemical efficacy of anti-inflammatory compounds such as selective COX-2 inhibitors. […] This correlates with the observation that COX-2 inhibitors have no effect on prostaglandin E2 (PGE2) production in normal blood. These inhibitors were active only after incubation of human blood with lipopolysaccharide (LPS), which induces COX-2 production in the blood.
Fresh blood was collected in tubes containing sodium heparin by vein puncture from healthy male volunteers. The subjects should have no apparent inflammatory conditions and should have not taken NSAIDs for at least 7 days prior to blood collection. Blood was preincubated with aspirin in vitro (12 μg/ml, at time zero) to inactivate COX-1 for 6 hours. Then test compounds (at various concentrations) or vehicle were added to blood, the blood was stimulated with LPS B:4 (10 μg/ml) and incubated for another 18 hours at 37° C. water bath. After which the blood was centrifuged, plasma was separated and stored at −80° C. (J. Pharmacol. Exp. Ther, 271, 1705, 1994; Proc. Natl. Acad. Sci. USA, 96, 7563, 1999). The plasma was assayed for PGE2 using Cayman ELISA kit as per the procedure outlined by the manufacturer (Cayman Chemicals, Ann Arbor, USA).

[1] = target: purified recombinant COX-1 (Homo sapiens, UniProt P23219); assay: COX-1 enzyme based assay; format: biochemical; conditions: NA = No activity, read-out: % Inhibition in rEnzyme Assay COX-1
Sequence of purified recombinant COX-1 (P23219 24-599): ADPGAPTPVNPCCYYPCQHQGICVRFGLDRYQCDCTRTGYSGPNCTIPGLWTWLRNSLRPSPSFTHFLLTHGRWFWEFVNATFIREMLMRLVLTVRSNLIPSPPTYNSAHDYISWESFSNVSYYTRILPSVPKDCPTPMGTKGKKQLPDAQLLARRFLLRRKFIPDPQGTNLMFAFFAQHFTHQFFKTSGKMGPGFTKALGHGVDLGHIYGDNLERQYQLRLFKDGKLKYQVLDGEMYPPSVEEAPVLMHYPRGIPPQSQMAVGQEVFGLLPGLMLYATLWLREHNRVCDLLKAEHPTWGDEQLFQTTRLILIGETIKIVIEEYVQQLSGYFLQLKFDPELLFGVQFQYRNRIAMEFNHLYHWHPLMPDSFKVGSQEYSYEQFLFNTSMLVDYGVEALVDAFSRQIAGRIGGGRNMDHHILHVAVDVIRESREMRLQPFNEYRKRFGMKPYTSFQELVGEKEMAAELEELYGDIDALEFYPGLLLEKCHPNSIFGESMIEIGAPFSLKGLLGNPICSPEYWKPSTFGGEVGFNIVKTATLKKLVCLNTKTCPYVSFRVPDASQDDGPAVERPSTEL
Protocol: (§9) COX-1 and COX-2 Enzyme Based Assay
(§10) COX-1 and COX-2 enzyme based assays were carried out to check the inhibitory potential of the test compounds on the production of prostaglandin by purified recombinant COX-1/COX-2 enzyme (Proc. Nat. Acad. Sci. USA, 88, 2692-2696, 1991; J. Clin. Immunoassay 15, 116-120, 1992) In this assay, the potential of the test compound to inhibit the production of prostaglandin either by COX-1 or COX-2 from arachidonic acid (substrate) was measured. This was an enzyme based in-vitro assay to evaluate selective COX inhibition with good reproducibility.
(§11) Arachidonic acid was converted to PGH2 (Intermediate product) by COX1/COX-2 in the presence or absence of the test compound. The reaction was carried out at 37° C. and after 2 minutes it was stopped by adding 1M HCl. Intermediate product PGH2 was converted to a stable prostanoid product PGF2αby SnCl2 reduction. The amount of PGF2α, produced in the reaction was inversely proportional to the COX inhibitory potential of the test compound. The prostanoid product was quantified via enzyme immunoassay (EIA) using a broadly specific antibody that binds to all the major forms of prostaglandin, using Cayman ELISA kit as per the procedure outlined by the manufacturer (Cayman Chemicals, Ann Arbor, USA).

[2] = target: T2, purified recombinant COX-2 (Homo sapiens, UniProt P35354); assay: COX-2 enzyme based assay; format: biochemical; conditions: 10 μM; NA = No activity; read-out: % Inhibition in rEnzyme Assay COX-2
T2 sequence (P35354 18-604): T1 sequence (P35354 18-604)
Protocol: as §9, §10, §11

TNF-α = assay: In vitro measurement of TNF-α in human PBMC (LPS stimulated); format: cell-based
Protocol: In Vitro Measurement of Tumor Necrosis Factor Alpha (TNF-α)
This assay determines the effect of test compounds on the production of TNF α in human Peripheral Blood Mononuclear Cells (PBMC). Compounds were tested for their ability to inhibit the activity of TNF α in human PBMC. PBMC were isolated from blood (of healthy volunteers) using BD Vacutainer CPT™ (Cell preparation tube, BD Bio Science) and suspended in RPMI medium (Physiol. Res. 52: 593-598, 2003). The test compounds were pre-incubated with PBMC (0.5 million/incubation well) for 15 minutes at 37° C. and then stimulated with Lipopolysaccharide (Escherichia coli: B4; 1 μg/ml) for 18 hours at 37° C. in 5% CO2. The levels of TNF-α in the cell culture medium were estimated using enzyme-linked immunosorbent assay performed in a 96 well format as per the procedure of the manufacturer (Cayman Chemical, Ann Arbor, USA).

Row | Compound | GI50 (HCT-116) [µM] | GI50 (NCI-H460) [µM] | melting point [°C] | also measured
1 | NS(=O)(=O)c1cccc(-c2c(-c3ccc(F)cc3)nc(C(F)(F)F)nc2N2CCN(c3cccc(C(F)(F)F)c3)CC2)c1 [Example 73, 5-(3-Aminosulfonylphenyl)-4-(4-fluorophenyl)-2-(trifluoromethyl)-6-{4-[3-(trifluoromethyl)phenyl]piperazin-1-yl}pyrimidine] | 9.2 | 9 |  | 
2 | Cc1ccc(S(=O)(=O)Oc2nc(C(F)(F)F)nc(-c3ccc(S(C)(=O)=O)cc3)c2-c2ccccc2)cc1 [Example 22, 6-[4-(Methylsulfonyl)phenyl]-5-phenyl-2-(trifluoromethyl)pyrimidin-4-yl-4-methylbenzenesulfonate] |  |  |  | inhibition at 0.25 µM (COX-2; 0.25 μM): 15.6%; inhibition at 1 µM (COX-2; 1 μM): 20.4%; inhibition at 10 µM (COX-2; 10 μM): 36.4%
3 | FC(F)(F)c1nc(-c2ccccc2)c(-c2ccccc2)c(N2CCN(c3ccccn3)CC2)n1 [Example 48, 4,5-Diphenyl-6-(4-pyridin-2-yl-piperazin-1-yl)-2-(trifluoromethyl)pyrimidine] |  |  | 165 to 167 | 
4 | CSc1nn(-c2nc(C(F)(F)F)nc(-c3ccncc3)c2-c2ccc(F)cc2)c(N)c1C(=O)Nc1ccc(C)c(C)c1 [Example 143, 5-Amino-N-(4,5-dimethylphenyl)-1-[5-(4-fluorophenyl)-6-pyridin-4-yl-2-(trifluoromethyl)pyrimidin-4-yl]-3-(methylthio)-1H-pyrazole-4-carboxamide] | 20 | 0.1 |  | 
5 | CS(=O)(=O)c1ccc(-c2nc(C(F)(F)F)nc(Cl)c2-c2ccc(S(=O)(=O)Cl)cc2)cc1 [Example 3, 4-{4-Chloro-6-[4-(methylsulfonyl)phenyl]-2-(trifluoromethyl)pyrimidin-5-yl}benzenesulfonyl chloride] |  |  | 207 to 210 | 
6 | CC(=O)NS(=O)(=O)c1ccc(-c2c(Cl)nc(C(F)(F)F)nc2-c2ccc(S(C)(=O)=O)cc2)cc1 [Example 17, N-[(4-{4-Chloro-6-[4-(methylsulfonyl)phenyl]-2-(trifluoromethyl)pyrimidin-5-yl}phenyl)sulfonyl]acetamide] |  |  | 230 to 235 | 
7 | O=C(c1ccc([N+](=O)[O-])o1)N1CCN(c2nc(C(F)(F)F)nc(-c3ccncc3)c2-c2ccc(F)cc2)CC1 [Example 44, 5-[4-Fluorophenyl]-4-[4-(5-nitro-2-furoyl)piperazin-1-yl]-6-pyridin-4-yl-2-(trifluoromethyl)pyrimidine] | 26 | 4.5 |  | 
8 | NS(=O)(=O)c1ccc(-c2nc(C(F)(F)F)nc(N3CCN(C(=O)c4ccc([N+](=O)[O-])o4)CC3)c2-c2ccc(F)cc2)cc1 [Example 40, 4-{5-[4-Fluorophenyl]-4-[4-(5-nitro-2-furoyl)piperazin-1-yl]-2-(trifluoromethyl)pyrimidin-6-yl}benzenesulfonamide] | 3.5 | 3.8 |  | 
9 | NS(=O)(=O)c1cccc(-c2c(-c3ccccc3)nc(C(F)(F)F)nc2N2CCNCC2)c1 [Example 51, 3-[4-Phenyl-6-piperazin-1-yl-2-(trifluoromethyl)pyrimidin-5-yl]benzenesulfonamide] | 30 | 4 |  | inhibition at 1 µM ([1]; 1 μM): 8.27%; inhibition at 10 µM ([1]; 10 μM): 7.1%; inhibition at 10 µM [2]: 12.3%
10 | O=C(NNc1nc(C(F)(F)F)nc(-c2ccncc2)c1-c1ccc(F)cc1)C(F)(F)F [Example 14, 2,2,2-Trifluoro-N′-[5-(4-fluorophenyl)-6-pyridin-4-yl-2-(trifluoromethyl)pyrimidin-4-yl]acetohydrazide] |  |  | 240 to 242 | inhibition at 1 µM (TNF-α; 1 μM, NA = No activity, read-out: TNF-α Inhibition (%) at Conc. (1 μM)): 25.5%; inhibition at 10 µM (TNF-α; 10 μM, read-out: TNF-α Inhibition (%) at Conc. (10 μM)): 67.5%
11 | NS(=O)(=O)c1ccc(-c2c(-c3ccc(F)cc3)nc(C(F)(F)F)nc2N2CCN(C(=O)c3ccc([N+](=O)[O-])o3)CC2)cc1 [Example 41, 4-{6-[4-Fluorophenyl]-4-[4-(5-nitro-2-furoyl)piperazin-1-yl]-2-(trifluoromethyl)pyrimidin-5-yl}benzenesulfonamide] | 7 | 4 |  | 

Source: patent publication US7863446B2, “Heterocycles” (Orchid Research Laboratories Limited, priority 2006, dated 2011)
